Experimental data from US20230235378A1, “LZHEIMER'S DISEASE-SPECIFIC ALTERATIONS OF PROTEIN KINASE C EPSILON (PKC-EPSILON PROTEIN LEVELS” (WEST VIRGINIA UNIVERSITY BOARD OF GOVERNORS ON BEHALF OF …, priority 2010, published 2023).
Where two headings read alike, the source gives them in different places.

Legend:
purified PKC = biological target: T1, purified PKC (Homo sapiens, UniProt Q02156); experiment: PKC isozyme specificity: purified PKC preincubated with compound, activity measured radiometrically; type: biochemical
T1 construct: purchased Calbiochem
T1 sequence (Q02156 1-737): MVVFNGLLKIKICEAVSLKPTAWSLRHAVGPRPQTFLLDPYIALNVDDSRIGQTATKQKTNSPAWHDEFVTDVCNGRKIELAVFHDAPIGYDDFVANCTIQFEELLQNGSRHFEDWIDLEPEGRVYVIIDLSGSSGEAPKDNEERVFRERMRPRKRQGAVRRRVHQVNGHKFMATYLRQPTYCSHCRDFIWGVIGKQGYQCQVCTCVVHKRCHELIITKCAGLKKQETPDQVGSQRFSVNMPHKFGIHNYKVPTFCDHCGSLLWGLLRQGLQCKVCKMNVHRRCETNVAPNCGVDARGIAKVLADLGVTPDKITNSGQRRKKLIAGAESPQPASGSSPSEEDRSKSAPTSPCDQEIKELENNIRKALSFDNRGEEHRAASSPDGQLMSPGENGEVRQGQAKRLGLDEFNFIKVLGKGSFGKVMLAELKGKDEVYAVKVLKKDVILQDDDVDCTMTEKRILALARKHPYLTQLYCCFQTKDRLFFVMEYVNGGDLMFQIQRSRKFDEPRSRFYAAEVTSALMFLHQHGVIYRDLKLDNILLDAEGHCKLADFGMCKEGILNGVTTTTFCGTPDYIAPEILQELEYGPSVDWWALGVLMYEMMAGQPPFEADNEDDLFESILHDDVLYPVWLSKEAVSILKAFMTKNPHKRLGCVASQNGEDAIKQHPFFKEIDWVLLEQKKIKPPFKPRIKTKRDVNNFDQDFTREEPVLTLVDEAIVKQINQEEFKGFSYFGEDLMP
Protocol: (§1) Protein Kinase C Assay. Rat hippocampal cells were cultured and scraped in 0.2 ml homogenization buffer (20 mM Tris-HCl, pH 7.4, 50 mM NaF, 1 μg/ml leupeptin, and 0.1 mM PMSF) and homogenized by sonication in a Marsonix micro-probe sonicator (5 sec, 10 W). To measure PKC, 10 μl of cell homogenate or purified PKC isozyme (purchased from Calbiochem) was incubated for 15 min at 37° C. in the presence of 10 μM histones, 4.89 mM CaCl2, 1.2 μg/μl phosphatidyl-L-serine, 0.18 μg/μl 1,2-dioctanoyl-sn-glycerol, 10 mM MgCl2, 20 mM HEPES (pH 7.4), 0.8 mM EDTA, 4 mM EGTA, 4% glycerol, 8 μg/ml aprotinin, 8 μg/ml leupeptin, and 2 mM benzamidine. 0.5 μCi [γ-32P]ATP was added and 32P-phosphoprotein formation was measured by adsorption onto phosphocellulose as described previously. Nelson and Alkon, J. Neurochemistry. 1995; 65: 2350-57. For measurements of activation by BR-101 (DCP-LA) and similar compounds, PKC activity was measured in the absence of diacylglycerol and phosphatidylserine, as described by Kanno et al., and PKC δ, ε, η, and were measured in the absence of added EGTA and CaCl2, as described by Kanno et al., J. Lipid Res. 2006; 47: 1146-50. Low concentrations of Ca2+ are used because high Ca2+ interacts with the PKC phosphatidylserine binding site and prevents activation. For measurements of bryostatin activation, 1,2-diacylglycerol was omitted unless otherwise stated.
To determine their PKC isozyme specificity, the new compounds were preincubated with purified PKC for five minutes and the PKC activity was measured radiometrically.

Aß [1] = experiment: Aß production in N2a neuroblastoma cells transfected with human APPSwe/PS1D (Aß 1-42 ELISA); type: cell-based, mouse; conditions: for levels of both intracellular and secreted Aß: 24 h incubation, various concentrations
Protocol: (§2) Aß Measurement and Cell Viability Assay. Aß was measured using an Aß 1-42 human fluorimetric ELISA kit (Invitrogen) according to the manufacturer's instructions. Results were measured in a Biotek Synergy HT microplate reader. AlamarBlue and CyQuant NF (Invitrogen) according to the manufacturer's instructions.
To measure the effects of PKC activation on Aß production, we used mouse neuro2a (N2a) neuroblastoma cells transfected with human APPSwe/PS1D, which produce large quantities of Aβ. Petanceska et al., J. Neurochem. 1996; 74: 1878-84. […] With bryostatin, which activates PKC by binding to the diacylglycerol-binding site, the inhibition was biphasic, with concentrations of 20 nM or higher producing no net effect. This may be explained by the ability of this class of PKC activators to downregulate PKC when used at high concentrations.

Aß [2] = experiment: Degradation of exogenous monomeric Aβ-42 in SH-SY5Y cells; type: cell-based, human; conditions: 0.01 to 10 μM; 100 nM exogenous monomeric Aβ-42; 24 h
Protocol: as §2
To determine whether the reduced levels of Aß caused by PKC activators were due to inhibition of Aß synthesis or activation of Aß degradation, we applied BR-111 (DHA-CP6) (0.01 to 10 μM) and low concentrations (100 nM) of exogenous monomeric Aβ-42 to cultured SH-SY5Y cells. This concentration of Aß is too low to produce measurable toxicity or cell death. Since SH-SY5Y cells produce only trace amounts of Aβ, this experiment was an effective test of the ability of PKC activators to enhance Aß degradation. By 24 h, most of the Aß had been taken up by the cells and the concentration of Aß in the culture medium was undetectable.

[3] = Cell viability assay (alamar Blue and CyQuant staining); type: cell-based
Protocol: as §2

TACE = TACE assay in cell homogenates of neuronal cells; type: cell-based; conditions: human SH-SY5Y, N2a mouse neuroblastoma cells, primary neurons from rat hippocampus
Protocol: TACE Assay. TACE was measured by incubating 5 μl cell homogenate, 3 μl buffer (50 mM Tris-HCl 7.4 plus 25 mM NaCl plus 4% glycerol), and 1 μl of 100 μM TACE substrate IV (Aβz-LAQAVRSSSR-DPa) (Calbiochem) for 20 min at 37° in 1.5-ml polypropylene centrifuge tubes (Jin et al., Anal. Biochem. 2002; 302: 269-75). The reaction was stopped by cooling to 4° C. The samples were diluted to 1 ml and the fluorescence was rapidly measured (ex=320 nm, em=420 nm) in a Spex Fluorolog 2 spectrofluorometer.
Buxbaum et al., J. Biol. Chem. 1998; 273: 27765-67; Etcheberrigaray et al., Proc. Natl. Acad. Sci. USA. 2006: 103:8215-20. However, many of these earlier studies were carried out in fibroblasts and other non-neuronal cell types, which appear to respond differently to PKC activators than neurons.

[4] = test system: Endothelin-converting enzyme (ECE); experiment: ECE assay in neuroblastoma cells (fluorimetric, McaBK2); type: cell-based, human; conditions: bryostatin 0.27 nM, BR-101 1 μM, BR-111 1
Protocol: ECE Assay. SH-5757 neuroblastoma cells were incubated with bryostatin (0.27 nM), BR-101 (DCP-LA) (1 μM), and BR-111 (DHA-CP6) (1 Endothelin-converting enzyme (ECE) was measured fluorimetrically using the method of Johnson and Ahn, Anal. Biochem. 2000; 286: 112-118. A sample of cell homogenate (20 μl) was incubated in 50 mM MES-KOH, pH 6.0, 0.01% C 12E10 (polyoxyethylene-10-lauryl ether), and 15 μM McaBK2 (7-Methoxycoumarin-4-acetyl [Ala7-(2,4-Dinitrophenyl)Lys9]-bradykinin trifluoroacetate salt) (Sigma-Aldrich). After 60 min at 37° C., the reaction was quenched by adding trifluoroacetic acid to 0.5%. The sample was diluted to 1.4 ml with water and the fluorescence was measured at ex=334 nm, em=398 nm.

PKC [5] = experiment: PKC activity in cultured rat hippocampal H19-7/IGF-IR cells; type: cell-based
Protocol: Cell Culture. Rat hippocampal H19-7/IGF-IR cells (ATCC, Manassas, Va.) were plated onto poly-L-lysine coated plates and grown at 35° C. in DMEM/10% FCS for several days until about 50% coverage was obtained. The cells were then induced to differentiate into a neuronal phenotype by replacing the medium with 5 ml N2 medium containing 10 ng/ml basic fibroblast growth factor at 39° C. and grown in T-75 flasks at 37° C. Human SH-SY5Y neuroblastoma cells (ATCC) were cultured in 45% F 12K/45% MEM/10% FCS. Mouse N2A neuroblastoma cells were cultured in DMEM/10% FCS without glutamine. Rat hippocampal neurons from 18-day-old embryonic
as §1
PKC activators that bind to the diacylglycerol binding site, including bryostatin, gnidimacrin, and phorbol esters, produce a transient activation of PKC activity, followed by a prolonged downregulation. Nelson et al., Trends in Biochem. Sci. 2009; 34: 136-45. This was confirmed in cultured rat hippocampal cells. Incubation of rat 1119-7/IGF-IR cells with (0.04 nM and 0.2 nM) bryostatin produced a 2-fold activation that lasted 30 min, followed by a 20% downregulation that returned to baseline by 24 h (data not shown). […] This sustained activation was only observed in primary neurons.

PKC [6] = experiment: PKC in perforated fibers of AD transgenic mice (FIG. 8); type: in vivo
α-secretase = conditions: human fibroblasts, cited from earlier work
rats = conditions: cited from earlier work

Compound: CCC1CC1CC1CC1CC1CC1CC1CC1CC1CC1CC1CC1CCC(=O)OC (stereo not shown) [BR-111, methyl-3-(2-((2-((2-((2-((2-((2-ethylcyclopropyl)methyl)cyclopropyl)methyl)cyclopropyl)methyl)-cyclopropyl)methyl)cyclopropyl)methyl)cyclopropyl)propanoate]
- concentration needed to activate PKC, relative to BR-101 (DCP-LA) (purified PKC; compared with BR-101 (DCP-LA)): approx. 100 times lower
- activation of purified PKC (purified PKC; used as methyl esters): activated purified PKC to a similar extent
- levels of both intracellular and secreted Aß (Aß [1]): markedly reduced
- concentration dependence of Aß inhibition (Aß [1]; concentrations up to 10 to 100 μM, no evidence of downregulation at higher concentrations): monotonically increasing inhibition
- reduction of cellular levels of Aß (Aß [2]): 45-63%
- effect on cell survival or proliferation [3]: no effect
- change in TACE activity (TACE): only produced small increases
- change in ECE activity [4]: sustained increase

Compound: CCC/C=C/C=C/C(=O)O[C@H]1/C(=C/C(=O)OC)C[C@H]2C[C@H]([C@@H](C)O)OC(=O)C[C@H](O)C[C@@H]3C[C@H](OC(C)=O)C(C)(C)[C@](O)(C[C@@H]4C/C(=C/C(=O)OC)C[C@H](/C=C/C(C)(C)[C@]1(O)O2)O4)O3 [bryostatin]
- downregulation of PKC following activation (PKC [5]; 0.04 nM and 0.2 nM): 20%
- time of return of PKC to baseline (PKC [5]; 0.04 nM and 0.2 nM): ≤ 24 h
- activation of PKC activity (PKC [5]; 0.04 nM and 0.2 nM, data not shown): 2 fold
- downregulation of PKC activity (PKC [5]; 8 h, data not shown): at or near the baseline
- levels of both intracellular and secreted Aß (Aß [1]): markedly reduced
- change in TACE activity (TACE): only produced small increases
- change in ECE activity [4]: sustained increase
- loss of PKC in perforated fibers (PKC [6]): prevents the loss of PKC in perforated fibers
- increase of initial rate of α-secretase activity (α-secretase; 10 μM): 16 fold
- increase of initial rate of α-secretase activity (α-secretase; 100 μM): 132 fold
- rate of learning (rats): dramatically increase
